Patent US6368598B1, “Drug complex for treatment of metastatic prostate cancer” (priority 1996, dated 2002)
Residues, ends and D or L forms follow the SMILES beside them. *: point of attachment. pNA = O=[N+]([O-])c1ccc(N*)cc1; MeOSuc = COC(=O)CCC(=O)*

Key:
[1] = after administration to a person; cited from earlier work
[2] = Cleavage in pooled human serum; assay type: in vitro ADME
Method: (§1) A tyrosine tripeptide (compound 1 in FIG. 5) was prepared using methods known to those in the peptide chemistry art. It is known that PSA cleaves its para-nitroanilide (pNA) derivative at the tyrosine site (compound 2 in FIG. 5). (Christensson, A. et al., Eur. J Biochem., 194:755-763 (1990)). It is also known that the “released” pNA makes it possible to study this reaction colormetrically.

[3] = Cleavage in newborn calf serum; assay type: in vitro ADME
Method: as §1

[4] = system: rat and human androgen independent prostate cancer cell lines; conditions: 500 nm thapsigargin, cited from earlier work
PC3 cells = test: Effect of TG and RT on clonogenic survival of PC3 cells; assay type: cell-based, human; conditions: for Surviving Fraction (SF) (PE treated/PE control): plated at 24 hours
Method: PC3 and DU-145 androgen-independent human prostate cancer cell lines obtained from the American Tissue Culture Collection (ATCC) are used for in vitro studies. Cells are grown as monolayer cultures in RPMI 1640 medium supplemented with 10% fetal bovine serum, 2 mM glutamine and antibiotics. Radiation survival curves and radiation-induced apoptotic DNA fragmentation patterns in these cell lines are already established in the laboratory. Cells are treated with this drug, carrier-peptide, or carrier-peptide-drug complex with or without radiation. After 24 hours, the cells are trypsinized and plated for clonogenic survival studies. Apoptotic response to the treatments is determined by: 1) agarose gel electrophoresis analysis of DNA fragmentation at 48 and 72 hours after treatment, 2) morphological observations after staining with DAPI, and 3) terminal deoxytransferase-mediated dUTP Nick End Labeling (TUNEL) assay.

[5] = system: DU-145 prostate cancer cells; test: Effect of TG and RT on proliferation of DU-145 prostate cancer cells (cell count, trypan blue); assay type: cell-based, human; conditions: for Total Number of Cells per Dish: counted at 48 hours
[6] = system: pumps of erythrocytes, plasma, or mitochondrial membranes; conditions: cited from earlier work
[7] = system: human DU-145 prostate carcinoma xenograft; test: Growth delay of human DU-145 prostate carcinoma xenograft in male SCID mice; assay type: in vivo
Method: Two human prostate carcinoma tumor lines grown as xenografts in male SCID mice are used: the human DU-145 prostate carcinoma which is not androgen dependent and the human LNCaP prostate carcinoma which produces PSA and has a well characterized androgen receptor and response to androgens. The drug complexes are administered up to maximally tolerated doses alone and in conjunction with fractionated radiation therapy (^137Cs Gamma Cell 40) delivered to the tumor bearing limb.
The progress of each tumor is assessed thrice weekly by caliper measurements until the tumors reach 2000 mm^3. Tumor growth delay is calculated as the number of days for each tumor to reach a volume of 500 mm^3 as compared to untreated controls. The efficacy of combination treatments is assessed using isobologram analysis for determination of additivity/synergy.
Male SCID mice bearing the human DU-145 prostate carcinoma Xenograft growing subcutaneously in a hind-limb were treated daily with TG (0.5 mg/kg) by IP injection from day 4-18 post tumor cell implantation. Some animal groups also received fractionated RT locally to the tumor bearing region on days 7-11 or days 7-11 and 14-18.

[8] = system: Ca++-ATPase pumps of the endoplasmic reticulum; conditions: cited from earlier work

For `NCCCCNCCCF` [N-3 fluoropropylputrescine], the “distribution to prostate and bone relative to blood and muscle” value [1] is listed as “selectively distributed to prostate and bone”.
In the case of `COC(=O)CCC(=O)N[C@@H](CCCNC(=N)N)C(=O)N1CCC[C@H]1C(=O)N[C@@H](Cc1ccc(O)cc1)C(=O)Nc1ccc([N+](=O)[O-])cc1` [compound 2] (MeOSuc-Arg-Pro-Tyr-pNA), the “cleavage, release of pNA” value [2] is reported as “neither newborn calf serum, nor pooled human serum cleaved” and the “cleavage, release of pNA” value [3] is reported as “neither newborn calf serum, nor pooled human serum cleaved”.
For `C/C=C(/C)C(=O)O[C@H]1C(C)=C2[C@H]([C@@H]1OC(=O)CCCCCCC)[C@@](C)(OC(C)=O)C[C@H](OC(=O)CCC)[C@@]1(O)[C@H]2OC(=O)[C@@]1(C)O` [Thapsigargin], the apoptosis ([4]; within 72 to 96 hours) is given as “undergo apoptosis”, the clonogenic potential ([4]; within 72 to 96 hours) is given as “lose their clonogenic potential” and the “intracellular Ca++” value ([4]; lines with or without p53 expression) is given as “elevation of intracellular Ca^++”. The “Surviving Fraction (SF) (PE treated/PE control)” value (“Surviving Fraction (SF)” for short) (PC3 cells; TG 20 nM, 0 Gy) was 0.69, the “NET survival (SF/TG toxicity)” value (PC3 cells; TG 20 nM, 2 Gy) was 0.61 and the “Surviving Fraction (SF)” value (PC3 cells; TG 20 nM, 2 Gy) was 0.42. For the same molecule, the “NET survival (SF/TG toxicity)” value (PC3 cells; TG 20 nM, 4 Gy) was 0.33, the “Surviving Fraction (SF)” value (PC3 cells; TG 20 nM, 4 Gy) was 0.23 and the “Surviving Fraction (SF)” value (PC3 cells; TG 50 nM, 0 Gy) was 0.80. The “NET survival (SF/TG toxicity)” value (PC3 cells; TG 50 nM, 2 Gy) was 0.49, the “Surviving Fraction (SF)” value (PC3 cells; TG 50 nM, 2 Gy) was 0.39 and the “NET survival (SF/TG toxicity)” value (PC3 cells; TG 50 nM, 4 Gy) was 0.29. For the same molecule, the “Surviving Fraction (SF)” value (PC3 cells; TG 50 nM, 4 Gy) was 0.23, the “Surviving Fraction (SF)” value (PC3 cells; TG 100 nM, 0 Gy) was 0.62 and the “NET survival (SF/TG toxicity)” value (PC3 cells; TG 100 nM, 2 Gy) was 0.40. For the same molecule, the “Surviving Fraction (SF)” value (PC3 cells; TG 100 nM, 2 Gy) was 0.25, the “NET survival (SF/TG toxicity)” value (PC3 cells; TG 100 nM, 4 Gy) was 0.30 and the “Surviving Fraction (SF)” value (PC3 cells; TG 100 nM, 4 Gy) was 0.18. For the same molecule, the “Surviving Fraction (SF)” value (PC3 cells; TG 200 nM, 0 Gy) was 0.58, the “NET survival (SF/TG toxicity)” value (PC3 cells; TG 200 nM, 2 Gy) was 0.43 and the “Surviving Fraction (SF)” value (PC3 cells; TG 200 nM, 2 Gy) was 0.25. For the same molecule, the “NET survival (SF/TG toxicity)” value (PC3 cells; TG 200 nM, 4 Gy) was 0.22, the “Surviving Fraction (SF)” value (PC3 cells; TG 200 nM, 4 Gy) was 0.13 and the “Surviving Fraction (SF)” value (PC3 cells; TG 400 nM, 0 Gy) was 0.60. For the same molecule, the “NET survival (SF/TG toxicity)” value (PC3 cells; TG 400 nM, 2 Gy) was 0.42, the “Surviving Fraction (SF)” value (PC3 cells; TG 400 nM, 2 Gy) was 0.25 and the “NET survival (SF/TG toxicity)” value (PC3 cells; TG 400 nM, 4 Gy) was 0.22. The “Surviving Fraction (SF)” value (PC3 cells; TG 400 nM, 4 Gy) was 0.13, the “clonogenic cell survival in vitro (result in words)” value (PC3 cells; summary of Table 2) was “inhibits clonogenic cell survival in vitro” and the “Total Number of Cells per Dish” value ([5]; TG 20 nM, 0 Gy) was 1.0 10^6. For the same molecule, the “Total Number of Cells per Dish” value ([5]; TG 20 nM, 2 Gy 2 hours after TG) was 0.8 10^6, the “Total Number of Cells per Dish” value ([5]; TG 20 nM, 4 Gy 2 hours after TG) was 0.3 10^6 and the “Total Number of Cells per Dish” value ([5]; TG 20 nM, 8 Gy 2 hours after TG) was 0.4 10^6. For the same molecule, the “Total Number of Cells per Dish” value ([5]; TG 100 nM, 0 Gy) was 0.7 10^6, the “Total Number of Cells per Dish” value ([5]; TG 100 nM, 2 Gy 2 hours after TG) was 0.5 10^6 and the “Total Number of Cells per Dish” value ([5]; TG 100 nM, 4 Gy 2 hours after TG) was 0.5 10^6. The “Total Number of Cells per Dish” value ([5]; TG 100 nM, 8 Gy 2 hours after TG) was 0.4 10^6, the “Total Number of Cells per Dish” value ([5]; TG 400 nM, 0 Gy) was 0.7 10^6 and the “Total Number of Cells per Dish” value ([5]; TG 400 nM, 2 Gy 2 hours after TG) was 0.4 10^6. The “Total Number of Cells per Dish” value ([5]; TG 400 nM, 4 Gy 2 hours after TG) was 0.3 10^6, the “Total Number of Cells per Dish” value ([5]; TG 400 nM, 8 Gy 2 hours after TG) was 0.3 10^6 and the “cell proliferation in vitro (result in words)” value ([5]; summary of Table 1) was “inhibits cell proliferation in vitro”. The “inhibition of pumps of erythrocytes, plasma, or mitochondrial membranes” value [6] was “not”, the “tumor growth delay, combination with RT” value ([7]; TG 0.5 mg/kg daily IP day 4-18 with fractionated RT days 7-11) was “the independent effects of TG and RT were additive” and the “tumor growth delay, combination with RT extended to 2 weeks” value ([7]; TG 0.5 mg/kg daily IP day 4-18 with fractionated RT days 7-11 and 14-18) was “the additional benefit of the TG administration was maintained”. For the same molecule, the tumor growth delay ([7]; TG 0.5 mg/kg daily IP, day 4-18, alone, FIG. 1) was “produced a measurable tumor growth delay” and the “inhibition of Ca++-ATPase pumps of the endoplasmic reticulum” value [8] was “specifically inhibits”.
